From patent publication US7101878B1 (Agouron Pharmaceuticals, Inc., priority 1998, dated 2006)
Where two headings read alike, the source gives them in different places.

Assays:
hGnRH receptor = molecular target: T1, hGnRH receptor (Homo sapiens, UniProt P30968); test: Total inositol phosphates measurement, 293 cells containing the hGnRH receptor; format: cell-based; conditions: for GnRH functional: no species or readout annotated
T1 construct: expressed in transfected cells; host or cells: HEK 293 (hGnRH-R/293, from Dr. Stuart Sealfon)
T1 sequence (P30968 1-328): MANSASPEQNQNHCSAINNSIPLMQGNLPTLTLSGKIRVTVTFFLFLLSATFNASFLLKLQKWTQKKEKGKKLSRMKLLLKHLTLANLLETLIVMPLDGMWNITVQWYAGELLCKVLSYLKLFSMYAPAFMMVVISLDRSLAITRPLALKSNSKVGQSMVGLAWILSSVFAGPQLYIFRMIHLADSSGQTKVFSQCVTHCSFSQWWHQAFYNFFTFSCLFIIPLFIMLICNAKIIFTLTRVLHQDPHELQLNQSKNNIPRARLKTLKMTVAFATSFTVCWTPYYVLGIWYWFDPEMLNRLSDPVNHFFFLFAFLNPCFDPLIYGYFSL
Description: To assess the activity of the compounds as agonists or antagonists, an assay measuring accumulation of total inositol phosphates was employed. 293 cells containing the hGnRH receptor were plated onto 24-well plates (approximately 200,000 cells/well) using DMEM media. […] The medium was aspirated and the cells rinsed with serum-free DMEM. The medium was aspirated and the cells were then treated with test compounds or vehicle for 30 minutes at 37° C. […] The media was replaced with ice-cold 10 mM formic acid, which stopped the reaction and also served to extract cellular lipids. Inositol phosphates were separated by ion-exchange chromatography on Dowex columns, which were washed with 2.5 mL of 10 mM myoinositol and 10 mM formic acid. The columns were then washed with 5 mL of 60 mM sodium formate and […], and total inositol phosphates were eluted with 5 mL 1M ammonium formate, 0.1 M formic acid. The column eluates were added to liquid scintillation vials containing 15 ml of scintillation cocktail and were counted by liquid scintillation counting.
This cell line was provided by Dr. Stuart Sealfon, Mount Sinai Medical School New York, N.Y. These cells were grown in DMEM supplemented with 0.2 g/L G418 100 U/ml penicillin/streptomycin and 10% FBS. Both GGH3 and hGnRH-R/293 cells were utilized for both for both total inositol phosphate measurement and for microphysiometry assessment of compound efficacy.

human GnRH receptor = molecular target: T2, human GnRH receptor (Homo sapiens, UniProt P30968); test: Radioligand binding, 125I-GnRH-A displacement, membranes of HEK 293 cells with human GnRH receptor
T2 construct: expressed in transfected cells; host or cells: HEK 293 (hGnRH-R/293, from Dr. Stuart Sealfon)
T2 sequence (P30968 1-328): T1 sequence (P30968 1-328)
Summary of the method: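 After filtration and PBS washes, bound radioactivity was counted by scintillation and IC50 derived. Identical conditions applied for non-human receptors.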

mouse GnRH receptor = molecular target: T3, mouse GnRH receptor (Mus musculus, UniProt Q01776); test: Radioligand binding, 125I-GnRH-A, 293 cells expressing mouse GnRH receptors
T3 construct: expressed in transfected cells; host or cells: 293 cells
T3 sequence (Q01776 1-327): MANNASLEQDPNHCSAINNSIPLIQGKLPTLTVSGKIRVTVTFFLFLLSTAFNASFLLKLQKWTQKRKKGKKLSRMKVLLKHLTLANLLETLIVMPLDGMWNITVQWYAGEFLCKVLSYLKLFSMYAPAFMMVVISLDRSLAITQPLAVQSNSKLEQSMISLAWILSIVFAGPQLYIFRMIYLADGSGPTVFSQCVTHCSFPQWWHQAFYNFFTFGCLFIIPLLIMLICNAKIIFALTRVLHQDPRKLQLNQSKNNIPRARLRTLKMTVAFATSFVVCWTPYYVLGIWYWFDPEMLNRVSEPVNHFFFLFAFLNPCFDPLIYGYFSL
Summary of the method: (§1)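 Bound label captured on 0.1% polyethyleneimine-treated GF/C filters, washed three times with PBS, counted. IC50 derived; identical set-up for every species.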

rat GnRH receptor = molecular target: T4, rat GnRH receptor (Rattus norvegicus, UniProt P30969); test: Radioligand binding, 125I-GnRH-A, rat pituitary membranes; set-up: membranes were prepared from rat pituitary; from tissue; host or cells: rat pituitary
T4 sequence (P30969 1-327): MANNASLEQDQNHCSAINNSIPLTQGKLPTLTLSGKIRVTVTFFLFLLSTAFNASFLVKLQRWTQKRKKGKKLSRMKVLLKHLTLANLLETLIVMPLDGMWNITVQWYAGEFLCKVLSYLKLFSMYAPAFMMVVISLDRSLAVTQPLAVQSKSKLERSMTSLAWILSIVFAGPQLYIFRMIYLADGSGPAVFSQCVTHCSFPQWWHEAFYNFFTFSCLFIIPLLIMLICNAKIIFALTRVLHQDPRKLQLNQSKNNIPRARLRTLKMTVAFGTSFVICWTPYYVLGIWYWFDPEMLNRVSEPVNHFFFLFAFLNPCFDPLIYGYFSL
Summary of the method: as §1

bovine GnRH receptor = molecular target: T5, bovine GnRH receptor (Bos taurus, UniProt P32236); test: Radioligand binding, 125I-GnRH-A, bovine pituitary membranes
T5 construct: membranes were prepared from bovine pituitary; from tissue; host or cells: bovine pituitary
T5 sequence (P32236 1-328): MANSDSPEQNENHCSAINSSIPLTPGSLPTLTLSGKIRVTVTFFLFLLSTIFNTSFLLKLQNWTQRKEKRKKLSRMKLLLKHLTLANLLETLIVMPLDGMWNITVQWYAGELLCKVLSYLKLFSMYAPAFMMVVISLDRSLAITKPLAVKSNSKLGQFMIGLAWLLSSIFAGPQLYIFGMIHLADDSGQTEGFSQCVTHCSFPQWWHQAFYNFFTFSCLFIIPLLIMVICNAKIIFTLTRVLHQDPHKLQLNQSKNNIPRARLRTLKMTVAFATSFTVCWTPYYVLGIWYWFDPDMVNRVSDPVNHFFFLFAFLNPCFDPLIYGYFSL
Summary of the method: as §1

[1] = Metabolism rate, pmol/min/mg at 1 μM, rat male; format: in vitro ADME; conditions: 1 μM compound
[2] = Metabolism rate, pmol/min/mg at 1 μM, rat female; format: in vitro ADME; conditions: 1 μM compound
[3] = Metabolism rate, pmol/min/mg at 1 μM, human; format: in vitro ADME; conditions: 1 μM compound
[4] = tested on: LH levels in castrated rats; test: Castrated male rat model, LH suppression; format: in vivo; conditions: 10 mg/kg iv
Description: Experimental Protocol: Male Sprague-Dawley (225-250 g) rats were castrated and allowed 10 days postoperative recovery. Ten days post castration animals were instrumented with indwelling femoral venous and arterial catheters to facilitate remote infusions and blood sampling. On the day of the experiment, animals were allowed to acclimate to the procedure room while residing in their home cage. Basal blood samples were drawn from all animals. Following basal sampling, either vehicle (10% DMSO, 10% cremophor/saline), Antide (1.0 μg) or compound 11 (10 mg/kg) was administered intravenously. Blood samples were drawn 10, 60, 90, 120, 180, 240 minutes after injections. Blood was centrifuged, serum collected and stored in −70° freezer until assayed. Serum samples were analyzed using DSL-4600 ACTIVE LH coated-tube immunoradiometric assay kit from Diagnostic Systems Laboratories, Inc.
Surgical removal of the gonads removes circulating testosterone and eliminates the negative feedback of testosterone on the hypothalamus. […] This model seems suitable for evaluating small molecule GnRH antagonists.
Male Sprague-Dawley ([…]) rats were castrated via the scrotal approach under halothane anesthesia. Animals were allowed 14 days post operative recovery prior to study. Thirteen days following castration, animals were anesthetized with halothane and instrumented with indwelling jugular vein cannula. Details of the cannulation procedure have been described previously {Harms and Ojeda, 1974)}. On study day, animals were allowed to acclimate to the procedure room while residing in their home cage. Basal blood samples were drawn from all animals. Immediately following basal sampling, vehicle or test compounds were administered by various routes. The routes of administration employed were intravenous (iv), intramuscular (im), intraperitoneal (ip), subcutaneous (sc) and oral (po). Blood samples were drawn into heparin containing tubes at multiple time points post treatment. Blood was centrifuged immediately, plasma collected and stored in −20° freezer until assayed. Plasma samples were analyzed using DSL-4600 ACTIVE LH coated-tube immunoradiometric assay kit from Diagnostic Systems Laboratories, Inc.
Formulation #1 (denoted with superscript 1): 10% DMSO, 10% Cremophor EL and 80% physiological saline.
Formulation #2 (denoted with superscript 2): 10% Cremophor EL and 90% physiological saline.

[5] = Pharmacokinetic studies / bioavailability in rats; format: in vivo, rat; conditions: rat female; for Cmax / Tmax / half-life: female, rat, plasma; for Cmax / Tmax: po, 10 mg/kg, p.o. 10 mg/kg; for Cmax / Tmax / Fp.o.: 5 mg/ml solution in 10% DMSO 10% cremophor 80% saline

Row | Compound | Kb (hGnRH receptor) [nM] | IC50 (human GnRH receptor; means ± SE of at least three experiments performed in duplicate, read-out: Human IC50) [nM] | IC50 (human GnRH receptor; read-out: hGnRH IC50) [nM] | IC50 (human GnRH receptor; second value marked * (mostly in parentheses), asterisk not explained, read-out: hGnRH IC50, value marked *) [nM] | IC50 (mouse GnRH receptor; means ± SE of at least three experiments performed in duplicate, read-out: Mouse IC50) [nM] | IC50 (mouse GnRH receptor; read-out: mGnRH IC50) [nM] | IC50 (rat GnRH receptor; means ± SE of at least three experiments performed in duplicate, read-out: Rat IC50) [nM] | IC50 (rat GnRH receptor; read-out: rGnRH IC50) [nM] | IC50 (bovine GnRH receptor; means ± SE of at least three experiments performed in duplicate, read-out: Bovine IC50) [nM] | GnRH functional (hGnRH receptor) | IC50 (bovine GnRH receptor; read-out: bGnRH IC50) [nM] | Rat male pmol/min/mg 1 μM [1] [pmol/min/mg] | Rat female pmol/min/mg 1 μM [2] [pmol/min/mg] | Human pmol/min/mg 1 μM [3] [pmol/min/mg] | % Max LH Suppression [4] [%] | time of % Max LH Suppression [4] [h] | Cmax [5] [nM] | Tmax [5] [h] | half-life [5] [h] | Fp.o. [5]
1 | Cc1cc2c(cc1Cc1ccc(C(=O)NCC3CCC(CNC(=N)N)CC3)o1)C(C)(C)CCC2(C)C (centres unmarked) [Compound 9] | 30 | 220 ± 33 | 220 | 40 | 2300 ± 460 | 2300 | 680 ± 120 | 680 | 3800 ± 220 | – | – | – | – | – | – | – | – | – | – | –
2 | CCOC(=O)[C@H]1CC[C@H](CNC(=O)c2ccc(Cc3cc4c(cc3C)C(C)(C)CCC4(C)C)o2)CC1 [Compound 31] | – | – | 140 | – | – | 1880 | – | 2800 | – | Antag- onist | 8900 | – | – | – | – | – | – | – | – | –
3 | Cc1cc2c(cc1Cc1ccc(C(=O)NCC3CCCCC3)o1)C(C)(C)CCC2(C)C [Compound 36] | – | – | 215 | – | – | 3800 | – | 2900 | – | Antag- onist | 12500 | – | – | – | – | – | – | – | – | –
4 | COc1cccc(OC)c1NC(=O)c1ccc(Cc2cc(C(C)(C)C)ccc2C)o1 [Compound 206] | – | – | 52 | – | – | 83 | – | 23 | – | – | – | 1794 | 330 | 689 | 51 | 1 | – | – | – | –
5 | COc1cc(OC)c(NC(=O)c2ccc(Cc3c(C)ccc4c3OCCC4(C)C)o2)c(OC)c1 [Compound 222] | – | – | 110 | – | – | 65 | – | 78 | – | – | – | 575 | 167 | 115 | – | – | 810 | 1.5 | 3.2 | 54% (10 mg/kg)^10
6 | COc1cccc(OC)c1NC(=O)c1ccc(Cc2c(C)c(C)cc(C)c2C)o1 [Compound 225] | – | – | 174 | – | – | 850 | – | 1510 | – | – | – | 2180 | 330 | 450 | – | – | 340 | 1 | 1.1 | 24% (10 mg/kg)^10
7 | COc1cccc(OC)c1NC(=O)c1ccc(Cc2c(C)c(C)c(Br)c(C)c2C)o1 [Compound 226] | – | – | 240 | – | – | 720 | – | 2130 | – | – | – | 990 | 173 | 369 | – | – | 420 | 1 to 5 | 4.6 | 34% (10 mg/kg)^10
8 | COc1cc(NS(C)(=O)=O)c(NC(=O)c2ccc(Cc3cc4c(cc3C)C(C)(C)CCC4(C)C)o2)c(OC)c1 [Compound 228] | – | – | 27 | – | – | 14 | – | 57 | – | – | – | 320 | 227 | 641 | – | – | 70 | 0.5 | 2.4 | 2% (10 mg/kg)^10
9 | COc1cc(C)c(Cl)c(C)c1Cc1ccc(C(=O)Nc2c(OC)cccc2OC)o1 [Compound 233] | – | – | 60 | – | – | 68 | – | 51 | – | – | – | 2988 | 338 | 773 | – | – | 340 | 1 | 1.4 | 34% (10 mg/kg)^10
